The values below come from patent US11014942B2, “Preparation of a solid form of gadobenate dimeglumine” (BRACCO IMAGING S.P.A., priority 2014, dated 2021).

Each structure is given as a SMILES string.

For data set [1] the following is noted: cited from earlier work; for Log P of antisolvent B: Table 1, CRC Handbook, values labelled * from U.S. National Library of Medicine; for log P (octanol/water partition coefficient): values listed in the description, CRC Handbook or US National Library of Medicine tables.
Data set [2] in a line: water dissolution of the solid form. Format: physicochemical. The source says:
As formerly discussed, the complex compound collected with the proposed process is endowed with a good stability, favorable workability and, especially, optimal water solubility.

Data set [3] can be described thus: storage stability of the collected solid. Format: physicochemical. The note with it: when properly stored, under inert atmosphere. The text has this:
Moreover, after its isolation, the collected solid product can conveniently be stored for long periods of time, for instance up to 2 years when properly stored, (i.e. under inert atmosphere) in a form that is ready for use in the preparation of the MultiHance® formulation, by simple dissolution of the solid compound in the proper amount of a pharmaceutically acceptable aqueous solution, such as, for instance, the sterile water for injections (WFI) or any another proper aqueous medium, according to procedures commonly employed in the art.

Data set [4] in a line: solubility in solvent A (upper concentration limit). Format: physicochemical. The source says:
Higher concentrations (of the gadobenate compound in the solvent A), for instance of at least 10% or, preferably, equal to or higher than 20%, are, however, preferred for the use of the invention, conveniently reducing organic solvent waste.

For `COCC(C)O` (stereo not drawn) [1-methoxy-2-propanol], in data set [1], the “Log P of antisolvent B” value is given as −0.44 and the “log P (octanol/water partition coefficient)” value is −0.437.
For `CCC(C)=O` [2-butanone], in data set [1], the “log P (octanol/water partition coefficient)” value is on record as 0.29.
Turning to `O=C1CCCCC1` [cyclohexanone], the “log P (octanol/water partition coefficient)” value in data set [1] is on record as 0.81.
Consider `COCCOCCOC` [diethylene glycol dimethyl ether], for which, in data set [1], the “Log P of antisolvent B” value is −0.36* and the “log P (octanol/water partition coefficient)” value was −0.36.
In the case of `O=C([O-])CN(CCN(CC(=O)[O-])CC(=O)[O-])CCN(CC(=O)O)C(COCc1ccccc1)C(=O)O.[Gd+3]` (stereo not drawn) [gadobenate dimeglumine, gadolinium complex of the 4-carboxy-5,8,11-tris(carboxymethyl)-1-phenyl-2-oxa-5,8,11-triazatridecan-13-oic acid], the “water required for complete dissolution” value in data set [2] (at 25-30° C.) is “less than 1 mL of water for 1 g of product”. Also, in data set [2] (less than 1 mL of water for 1 g of product at 25-30° C.), the “time to complete ready dissolution in water” value is recorded as “less than five minutes”. For the same molecule, in data set [3], the “storage time of the collected solid product” value is “up to 2 years”. For the same molecule, the “upper concentration limit consistent with solubility in methanol” value in data set [4] (solvent A methanol) is on record as “about 50%”. For the same molecule, the “upper concentration limit based on solubility in water or aqueous solvent” value in data set [4] (solvent A water or aqueous solvent such as saline solution) is “about 70%”.
`CC(=O)CC(C)C` [methyl isobutyl ketone]: in data set [1], the “Log P of antisolvent B” value is on record as 0.56 and the “log P (octanol/water partition coefficient)” value is listed as 0.56.
`C1CCOC1` [tetrahydrofurane]: in data set [1], the “Log P of antisolvent B” value was 0.46 and the “log P (octanol/water partition coefficient)” value was 0.46.
